Assay [1] deals with MDA-MB-231 cells over-expressing PHGDH. The assay can be described thus: Intracellular serine in MDA-MB-231 cells expressing PHGDH, medium lacking serine and glycine (LC-MS). It counts as cell-based, human. Particulars: media lacking serine and glycine. As to the method:
To examine target engagement of PHGDH inhibitors in cells, MDA-MB-231 cells that lack detectable expression of PHGDH and MDA-MB-231 cells that stably express full-length human PHGDH (MDA-MB-231-PHGDH) were treated with PHGDH inhibitors in RPMI lacking serine and glycine. A MDA-MB-231 cell line was constructed which expresses PHGDH for comparison against the MDA-MB-231 empty vector line. MDA-MB-231 breast cancer cells were infected with PHGDH-expressing retrovirus.
MDA-MB-231 cells are incapable of synthesizing serine, but the addition of PHGDH permits these cells to synthesize serine. […] Concentrations of serine were determined by comparison with signals of internal standards and calibration curves. PHGDH inhibition reduces steady-state levels of intracellular serine in MDA-MB-231 cells over-expressing PHGDH. Studies were also performed in MDA-MB-468 cells, which over-express PHGDH and are PHGDH-dependent.
Cells were evenly seeded at 400,000 cells per well of a 6-well plate and allowed to attach for 24 hours. Prior to all labeling experiments, cells were pretreated with 10 μM compound or an equivalent volume of DMSO in RPMI for 1 hour. For steady-state metabolite concentrations, cells were washed with PBS prior to pretreatment and treatment in RPMI lacking serine and glycine. For labeling experiments, U-^13C-glucose, U-^13C-serine, or U-^13C-glycine replaced the corresponding unlabeled RPMI component. Cells were washed in 4° C. […] Triplicate identically seeded wells were trypsinzed and analyzed with a Multisizer Coulter Counter (Beckman Coulter) to obtain cell counts and total cell volumes for normalization.
Dried metabolites were resuspended in 100 μL water, centrifuged at 13,000×g at 4° C. for 10 minutes, and the supernatant recovered for analysis. […] Metabolites were monitored using a polarity-switching full-scan method and identified by accurate mass (±20 ppm) and retention time within 15 seconds of a previously run pure standard. […]

The target of assay [2] is T1, PHGDH (Homo sapiens (Human), UniProt O43175). Nature of the assay: PHGDH inhibition, coupled assay with PSAT1/PSPH and diaphorase/resazurin readout. Particulars: Table E9; mixture with PSAT1, PSPH; diaphorase/resazurin reporter. Type of assay: biochemical.
T1 sequence (O43175 whole entry): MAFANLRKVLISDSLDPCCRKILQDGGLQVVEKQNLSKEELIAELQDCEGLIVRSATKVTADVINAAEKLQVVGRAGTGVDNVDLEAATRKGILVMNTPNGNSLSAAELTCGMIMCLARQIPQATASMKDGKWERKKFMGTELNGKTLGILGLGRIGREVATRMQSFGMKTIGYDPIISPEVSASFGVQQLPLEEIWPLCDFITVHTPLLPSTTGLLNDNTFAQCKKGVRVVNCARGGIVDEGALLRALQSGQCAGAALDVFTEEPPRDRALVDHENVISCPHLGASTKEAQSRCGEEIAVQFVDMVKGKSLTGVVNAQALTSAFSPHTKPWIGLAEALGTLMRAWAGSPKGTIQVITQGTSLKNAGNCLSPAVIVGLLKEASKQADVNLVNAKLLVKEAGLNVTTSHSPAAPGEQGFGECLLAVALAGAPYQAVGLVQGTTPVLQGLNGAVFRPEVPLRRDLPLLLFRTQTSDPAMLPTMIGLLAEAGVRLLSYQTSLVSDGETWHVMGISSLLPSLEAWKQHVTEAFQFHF
Procedure: Compounds of the invention were assayed for inhibition of the activity phosphoglycerate dehydrogenase (PHGDH). The compounds were assayed in a mixture comprising PHGDH, PSAT1, PSPH, NADH, and glutamate. Diaphorase and resazurin were used as a fluorescent reporter system.
In this endogenous pathway coupled assay, the production of NADH by PHGDH was measured through the diaphorasemediated reduction of resazurin (See, e.g., Chakraborty, S., Sakka, M., Kimura, T. & Sakka, K. “Characterization of a dihydrolipoyl dehydrogenase having diaphorase activity of Clostridium kluyveri.” BioscL Biotechnol. Biochem. 72, 982-988 (2008)).
PHGDH assay buffer contained 50 mM TEA pH 8.0, 10 mM MgCl2, 0.05% BSA, and 0.01% Tween-20. PHGDH enzyme buffer consisted of assay buffer with 20 nM PHGDH and 0.2 mg/mL diaphorase. PHGDH substrate buffer contained 0.3 mM NAD 1.25 mM glutamate, 0.1 mM 3-phosphoglycerate, 0.2 mM resazurin, 1 μM PSAT1, and 1 μM PSPH. qHTS was performed in 1536-well plates dispensed with a BioRAPTR FRD. Each well contained equal volumes of substrate buffer and assay buffer. Plates were read at 0 minutes and 20 minutes at room temperature with a ViewLux uHTS Microplate Imager (PerkinElmer). Follow-up assays were performed in black 384-well plates (Greiner) in 20 μL of enzyme buffer to which compounds were added in dose-response with an HP D300 digital dispenser (Hewlett-Packard), followed by addition of 20 μL of substrate buffer. Plates were incubated at room temperature (25° C.) and read at 0 and 20 minutes with a Spectramax M5 plate reader (Molecular Devices) in fluorescence intensity mode with a λex=550 nm and λem=600 nm (emission cutoff=590 nm).
Assay [3] has as its system MDA-MB-468 cells. Nature of the assay: Metabolite profiling and 13C labeling in MDA-MB-468 cells (LC-MS). It counts as cell-based, human. The following applies: washout. As to the method:
To track the effects of PHGDH inhibition on glycolysis and serine biosynthesis, MDA-MB-231 and MDA-MB-468 cells were fed universally labeled carbon-13 glucose and the intracellular ratio of labeled to unlabeled glucose was measured at the times indicated in FIG. 3E.
Cells were evenly seeded at 400,000 cells per well of a 6-well plate and allowed to attach for 24 hours. Prior to all labeling experiments, cells were pretreated with 10 μM compound or an equivalent volume of DMSO in RPMI for 1 hour. For steady-state metabolite concentrations, cells were washed with PBS prior to pretreatment and treatment in RPMI lacking serine and glycine. For labeling experiments, U-^13C-glucose, U-^13C-serine, or U-^13C-glycine replaced the corresponding unlabeled RPMI component. Cells were washed in 4° C. 0.9% (w/v) NaCl in LCMS-grade water and extracted in 1 mL/well of 80:20 (v/v) methanol:water with 0.01 ng/mL Val-d8 and Phe-d8 as internal extraction standards. The extraction solvent was dried under nitrogen gas and metabolite samples were stored at −80° C. until analysis. Triplicate identically seeded wells were trypsinzed and analyzed with a Multisizer Coulter Counter (Beckman Coulter) to obtain cell counts and total cell volumes for normalization.
Dried metabolites were resuspended in 100 μL water, centrifuged at 13,000×g at 4° C. for 10 minutes, and the supernatant recovered for analysis. Chromatographic separation was achieved by injecting 1 pi of sample on a SeQuant ZIC-pHILIC Polymeric column (2.1 3 150 mm […], EMD Millipore). Flow rate was set to 0.1 ml per minute, column compartment was set to 25° C., and autosampler sample tray was set to 4° C. Mobile Phase A consisted of 20 mM ammonium carbonate, 0.1% ammonium hydroxide. Mobile Phase B was 100% acetonitrile. The mobile phase gradient (% B) was as follows: 0 min 80%, 30 min 20%, 31 min 80%, 42 min 80%. All mobile phase was introduced into the ionization source set with the following parameters: sheath gas=40, auxiliary gas=15, sweep gas=5, spray voltage=−3.1 kV or +3.0 kV, capillary temperature=275° C., S-lens RF level=40, probe temperature=350° C. Metabolites were monitored using a polarity-switching full-scan method and identified by accurate mass (±20 ppm) and retention time within 15 seconds of a previously run pure standard. Metabolite peaks were identified and integrated with Xcalibur v.2.2 software (Thermo Fisher Scientific) and normalized to internal standard and to total cell volume, m/z ratios for stable isotopically labeled metabolites were obtained from IsoMETLIN (See, e.g., Cho, K. et al. “isoMETLIN: a database for isotope-based metabolomics.” Anal Chem 86, 9358-9361 (2014)) and corrected for natural abundance.

For assay [4], the system named is panel of other dehydrogenases. The assay can be described thus: Panel of other dehydrogenases. Type of assay: biochemical.
Assay [5] addresses ALDH (Homo sapiens (Human), UniProt P00352). The assay can be described thus: Counter-screen against ALDH. It counts as biochemical. The following applies: Table E11.
Assay [6] concerns the target GAPDH (Homo sapiens (Human), UniProt P04406). The assay can be described thus: Counter-screen against GAPDH. It counts as biochemical. Particulars: Table E11. As for the experimental part: GAPDH substrate buffer contained 210 mM Tris pH 7.4, 2.5 mM NaH2PO4 pH 7.4, 2 mM DL-Glyceraldehyde 3-phosphate, 1.75 mM MgCl2, 0.01 mM NAD+, 0.11 mM resazurin, 0.2 mg/mL BSA, and 0.01% Tween-20. GAPDH enzyme buffer contained 50 mM Tris pH 7.4, 100 mM NaCl, 0.02 mM TCEP, 0.01 mM EDTA, 0.1 mg/mL BSA, 0.42 mg/mL diaphorase, and 2.5 nM GAPDH. The GAPDH, GPD1, and GPD1L assays were run in 384-well plates using the same protocol and readout as the PHGDH assay. […] GPD1 enzyme buffer contained 50 mM Tris pH 7.4, 100 mM NaCl, 0.08 mM TCEP, 0.4 mg/mL BSA, 0.03 μM EDTA, and 0.8 nM GPD1. 70 μL of substrate buffer were mixed with 10 μL enzyme buffer. GPD1L substrate buffer contained 200 mM Tris pH 7.4, 0.05 mM sn-G3-P, 2 mM MgCl2, 0.04 mM NAD+, 0.11 mM resazurin, 0.1 mg/mL BSA, and 0.02% Tween-20. GPD1L enzyme buffer contained 50 mM Tris pH 7.4, 100 mM NaCl, 0.02 mM TCEP, 0.42 mg/mL diaphorase, 0.1 mg/mL BSA, 0.008 μM EDTA, and 16 nM GPD1L. 40 μL of substrate buffer were mixed with 40 μL of enzyme buffer.
The GAPDH and GPD1L assays were read using the same protocol as the PHGDH assay. The GPD1 assay was read using loss of NADH fluorescence (λex=340 nm and λem=460 nm).

The target of assay [7] is T1, PHGDH. Nature of the assay: Differential scanning fluorimetry. It counts as binding. As to the method:
Destabilization has been previously observed in the specific binding of small molecules to their protein targets (see, e.g., Hamiaux, C. et al. “DAD2 is an α/β hydrolase likely to be involved in the perception of the plant branching hormone, strigolactone.” Curr Biol 22, 2032-2036 (2012)).
Differential scanning fluorimetry assays were carried out in 20 mM TEA pH 8, 100 mM NaCl, 1× SYPRO Orange (Sigma), 2 μM PHGDH in a volume of 10 μL. Unfolding was monitored using a LightCycler 480 II real-time PCR instrument (λex=465 nm and λem=580 nm) over a linear 20 to 85° C. gradient. Plots of the first derivative of fluorescence vs. temperature were generated in LightCycler software.

Assay [8] relates to panel of 168 GPCRs. The assay can be described thus: Cross-reactivity in a panel of 168 GPCRs.
The target of assay [9] is HSD17B4 (Homo sapiens (Human), UniProt P51659). Nature of the assay: Counter-screen against HSD17B4. Type of assay: biochemical. The following applies: Table E11.
Chain of HSD17B4 (P51659 whole entry, species assumed): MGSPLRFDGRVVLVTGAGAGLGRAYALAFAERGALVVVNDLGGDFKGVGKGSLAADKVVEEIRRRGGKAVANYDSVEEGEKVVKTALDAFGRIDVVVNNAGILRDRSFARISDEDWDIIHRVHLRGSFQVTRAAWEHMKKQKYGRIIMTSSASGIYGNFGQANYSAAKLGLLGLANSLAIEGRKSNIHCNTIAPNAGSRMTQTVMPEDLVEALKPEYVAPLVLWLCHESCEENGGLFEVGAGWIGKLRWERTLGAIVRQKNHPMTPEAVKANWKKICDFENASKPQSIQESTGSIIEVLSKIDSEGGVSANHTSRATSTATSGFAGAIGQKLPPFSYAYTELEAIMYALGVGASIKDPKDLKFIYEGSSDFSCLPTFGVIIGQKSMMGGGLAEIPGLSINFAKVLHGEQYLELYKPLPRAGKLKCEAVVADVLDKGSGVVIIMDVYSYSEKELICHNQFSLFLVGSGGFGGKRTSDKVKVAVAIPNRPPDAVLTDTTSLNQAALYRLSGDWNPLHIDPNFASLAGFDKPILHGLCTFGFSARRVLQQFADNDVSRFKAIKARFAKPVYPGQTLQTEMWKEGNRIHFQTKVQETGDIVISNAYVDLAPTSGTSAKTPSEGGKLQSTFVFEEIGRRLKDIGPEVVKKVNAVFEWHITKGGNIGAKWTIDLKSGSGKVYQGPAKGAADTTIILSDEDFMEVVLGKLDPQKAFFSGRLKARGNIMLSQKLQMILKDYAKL

Chain of GAPDH (P04406 whole entry): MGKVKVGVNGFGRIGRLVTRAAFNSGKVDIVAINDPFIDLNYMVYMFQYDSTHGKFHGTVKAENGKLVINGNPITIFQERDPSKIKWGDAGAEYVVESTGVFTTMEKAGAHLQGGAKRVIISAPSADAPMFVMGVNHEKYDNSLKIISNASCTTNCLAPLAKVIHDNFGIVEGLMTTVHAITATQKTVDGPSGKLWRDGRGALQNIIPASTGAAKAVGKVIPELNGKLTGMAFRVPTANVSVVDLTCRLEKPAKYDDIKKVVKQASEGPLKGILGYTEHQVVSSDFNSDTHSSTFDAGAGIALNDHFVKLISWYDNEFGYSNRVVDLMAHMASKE
Chain of ALDH (P00352 whole entry): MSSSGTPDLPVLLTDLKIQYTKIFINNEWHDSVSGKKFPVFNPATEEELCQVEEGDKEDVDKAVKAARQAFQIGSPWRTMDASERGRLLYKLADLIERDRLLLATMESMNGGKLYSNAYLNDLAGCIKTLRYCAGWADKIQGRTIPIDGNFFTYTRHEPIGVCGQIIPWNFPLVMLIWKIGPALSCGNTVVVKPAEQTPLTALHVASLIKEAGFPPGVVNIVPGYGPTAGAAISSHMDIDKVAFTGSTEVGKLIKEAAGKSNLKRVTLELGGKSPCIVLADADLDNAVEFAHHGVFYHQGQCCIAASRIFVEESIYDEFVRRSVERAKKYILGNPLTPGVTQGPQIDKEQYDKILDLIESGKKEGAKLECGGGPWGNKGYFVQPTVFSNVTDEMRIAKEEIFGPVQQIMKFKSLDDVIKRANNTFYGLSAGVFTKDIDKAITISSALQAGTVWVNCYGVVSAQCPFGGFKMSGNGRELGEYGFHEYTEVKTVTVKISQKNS

With `Cc1cc(C)nc(NC(=S)N2CCN(c3ccncc3)CC2)c1` [Compound 71, N-(4,6-dimethylpyridin-2-yl)-4-(pyridin-4-yl)piperazine-1-carbothioamide], the intracellular serine levels entry in assay [1] was “not reduced”. Also, in assay [2], the IC50 is ≥ 20 µM.
As for `Cc1cc(C)nc(NC(=S)N2CCN(c3ccc(C(F)(F)F)cn3)CC2)c1` [Compound 72, N-(4,6-dimethylpyridin-2-yl)-4-(5-(trifluoromethyl)pyridin-2-yl)piperazine-1-carbothioamide], the “reversibility of inhibition of serine synthesis in cells” value in assay [3] was “reversible”. The “activity against a panel of other dehydrogenases” value in assay [4] was “inactive”. In [1], the intracellular serine levels result was “decreased”. The IC50 is 10 to 50 µM in [5], ≥ 100 µM in assay [6] and ≥ 100 µM in assay [9]. Besides, in assay [7], the “Tm of PHGDH” value is reported as “decreased”. The “cross-reactivity, modulation of activity” value in [8] is listed as < 30%.

For the origin of these results see patent US11225469B2, “Inhibitors of phosphoglycerate dehydrogenase (PHGDH) and uses thereof” (Whitehead Institute for Biomedical Research, priority 2015, dated 2022).
